Experimental data from PubChem BioAssay (NCI).
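Where inhibition never reached the appropriate level, the endpoint shown equals the highest concentration tested. Otherwise, values were interpolated linearly from a five-concentration, 48-hour dose response in 96-well plates. GI50 is the concentration that inhibits growth by half. TGI denotes the concentration required for complete inhibition of growth.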

Experiments:
Test in all cases: NCI-60 cell line screen, 48 h
786-0 renal = tested on: 786-0 renal
A498 renal = tested on: A498 renal
A549 NSCLC = tested on: A549 NSCLC
ACHN renal = tested on: ACHN renal
BT-549 breast = tested on: BT-549 breast
CAKI-1 renal = tested on: CAKI-1 renal
CCRF-CEM leukemia = tested on: CCRF-CEM leukemia
COLO 205 colon = tested on: COLO 205 colon
DU-145 prostate = tested on: DU-145 prostate
EKVX NSCLC = tested on: EKVX NSCLC
HCC-2998 colon = tested on: HCC-2998 colon
HCT-116 colon = tested on: HCT-116 colon
HCT-15 colon = tested on: HCT-15 colon
HOP-62 NSCLC = tested on: HOP-62 NSCLC
HT29 colon = tested on: HT29 colon
IGROV1 ovarian = tested on: IGROV1 ovarian
K-562 leukemia = tested on: K-562 leukemia
KM12 colon = tested on: KM12 colon
LOX IMVI melanoma = tested on: LOX IMVI melanoma
M14 melanoma = tested on: M14 melanoma
MALME-3M melanoma = tested on: MALME-3M melanoma
MCF7 breast = tested on: MCF7 breast
MDA-MB-231 breast = tested on: MDA-MB-231 breast
MDA-MB-435 = tested on: MDA-MB-435
MDA-N = tested on: MDA-N
MOLT-4 leukemia = tested on: MOLT-4 leukemia
NCI-H226 lung = tested on: NCI-H226 lung
NCI-H23 lung = tested on: NCI-H23 lung
NCI-H522 lung = tested on: NCI-H522 lung
NCI/ADR-RES ovarian = tested on: NCI/ADR-RES ovarian
OVCAR-3 ovarian = tested on: OVCAR-3 ovarian
OVCAR-4 ovarian = tested on: OVCAR-4 ovarian
OVCAR-5 ovarian = tested on: OVCAR-5 ovarian
OVCAR-8 ovarian = tested on: OVCAR-8 ovarian
PC-3 prostate = tested on: PC-3 prostate
RPMI-8226 leukemia = tested on: RPMI-8226 leukemia
RXF 393 renal = tested on: RXF 393 renal
SF-268 CNS = tested on: SF-268 CNS
SF-295 CNS = tested on: SF-295 CNS
SF-539 CNS = tested on: SF-539 CNS
SK-MEL-2 melanoma = tested on: SK-MEL-2 melanoma
SK-MEL-28 melanoma = tested on: SK-MEL-28 melanoma
SK-MEL-5 melanoma = tested on: SK-MEL-5 melanoma
SK-OV-3 ovarian = tested on: SK-OV-3 ovarian
SN12C renal = tested on: SN12C renal
SNB-19 CNS = tested on: SNB-19 CNS
SNB-75 CNS = tested on: SNB-75 CNS
SR leukemia = tested on: SR leukemia
SW-620 colon = tested on: SW-620 colon
TK-10 renal = tested on: TK-10 renal
U251 CNS = tested on: U251 CNS
UACC-257 melanoma = tested on: UACC-257 melanoma
UACC-62 melanoma = tested on: UACC-62 melanoma
UO-31 renal = tested on: UO-31 renal
HL-60(TB) leukemia = tested on: HL-60(TB) leukemia
HOP-92 NSCLC = tested on: HOP-92 NSCLC
HS 578T breast = tested on: HS 578T breast
NCI-H460 lung = tested on: NCI-H460 lung
T-47D breast = tested on: T-47D breast

## CC1(C)OC2OC(COC(=O)c3ccc(C#N)cc3)C3OC(C)(C)OC3C2O1 (centres undefined)
786-0 renal
  TGI: > 75 µM
A498 renal
  TGI: > 75 µM
A549 NSCLC
  TGI: > 75 µM
ACHN renal
  TGI: > 75 µM
BT-549 breast
  TGI: > 75 µM
CAKI-1 renal
  TGI: > 75 µM
CCRF-CEM leukemia
  TGI: > 75 µM
COLO 205 colon
  TGI: > 75 µM
DU-145 prostate
  TGI: > 75 µM
EKVX NSCLC
  TGI: > 75 µM
HCC-2998 colon
  TGI: > 75 µM
HCT-116 colon
  TGI: > 75 µM
HCT-15 colon
  TGI: > 75 µM
HOP-62 NSCLC
  TGI: > 75 µM
HT29 colon
  TGI: > 75 µM
IGROV1 ovarian
  TGI: > 75 µM
K-562 leukemia
  TGI: > 75 µM
KM12 colon
  TGI: > 75 µM
LOX IMVI melanoma
  TGI: > 75 µM
M14 melanoma
  TGI: > 75 µM
MALME-3M melanoma
  TGI: > 75 µM
MCF7 breast
  TGI: > 75 µM
MDA-MB-231 breast
  TGI: > 75 µM
MDA-MB-435
  TGI: > 75 µM
MDA-N
  TGI: > 75 µM
MOLT-4 leukemia
  TGI: > 75 µM
NCI-H226 lung
  TGI: > 75 µM
NCI-H23 lung
  TGI: > 75 µM
NCI-H522 lung
  TGI: > 75 µM
NCI/ADR-RES ovarian
  TGI: > 75 µM
OVCAR-3 ovarian
  TGI: > 75 µM
OVCAR-4 ovarian
  TGI: > 75 µM
OVCAR-5 ovarian
  TGI: > 75 µM
OVCAR-8 ovarian
  TGI: > 75 µM
PC-3 prostate
  TGI: > 75 µM
RPMI-8226 leukemia
  TGI: > 75 µM
RXF 393 renal
  TGI: > 75 µM
SF-268 CNS
  TGI: > 75 µM
SF-295 CNS
  TGI: > 75 µM
SF-539 CNS
  TGI: > 75 µM
SK-MEL-2 melanoma
  TGI: > 75 µM
SK-MEL-28 melanoma
  TGI: > 75 µM
SK-MEL-5 melanoma
  TGI: > 75 µM
SK-OV-3 ovarian
  TGI: > 75 µM
SN12C renal
  TGI: > 75 µM
SNB-19 CNS
  TGI: > 75 µM
SNB-75 CNS
  TGI: > 75 µM
SR leukemia
  TGI: > 75 µM
SW-620 colon
  TGI: > 75 µM
TK-10 renal
  TGI: > 75 µM
U251 CNS
  TGI: > 75 µM
UACC-257 melanoma
  TGI: > 75 µM
UACC-62 melanoma
  TGI: > 75 µM
UO-31 renal
  TGI: > 75 µM

## C=C(CN1c2ccccc2Sc2ccccc21)c1ccc(C(=O)Nc2ccccc2N)cc1
786-0 renal
  GI50: 832 nM
  TGI: > 100 µM
A498 renal
  GI50: > 100 µM
  TGI: > 100 µM
A549 NSCLC
  GI50: 11.4 µM
  TGI: > 100 µM
ACHN renal
  GI50: > 71.7 µM
  TGI: > 100 µM
BT-549 breast
  GI50: > 27.3 µM
  TGI: > 100 µM
CAKI-1 renal
  GI50: 8.83 µM
  TGI: > 50.2 µM
CCRF-CEM leukemia
  GI50: 101 nM
COLO 205 colon
  GI50: 34.7 µM
  TGI: > 100 µM
DU-145 prostate
  GI50: > 100 µM
  TGI: > 100 µM
EKVX NSCLC
  GI50: > 86 µM
  TGI: > 100 µM
HCC-2998 colon
  GI50: 14.6 µM
  TGI: > 86.3 µM
HCT-116 colon
  GI50: 11.1 µM
  TGI: > 100 µM
HCT-15 colon
  GI50: > 42.5 µM
  TGI: > 100 µM
HL-60(TB) leukemia
  GI50: 184 nM
  TGI: > 100 µM
HOP-62 NSCLC
  GI50: > 46.7 µM
  TGI: > 100 µM
HOP-92 NSCLC
  GI50: > 47.9 µM
  TGI: > 100 µM
HS 578T breast
  GI50: > 100 µM
  TGI: > 100 µM
HT29 colon
  GI50: 11.5 µM
  TGI: > 100 µM
IGROV1 ovarian
  GI50: 28.1 µM
  TGI: > 100 µM
K-562 leukemia
  GI50: 2470 nM
  TGI: > 100 µM
KM12 colon
  GI50: 5.84 µM
  TGI: > 100 µM
LOX IMVI melanoma
  GI50: > 52.7 µM
  TGI: > 100 µM
M14 melanoma
  GI50: 32.9 µM
  TGI: > 100 µM
MALME-3M melanoma
  GI50: > 23 µM
  TGI: > 100 µM
MCF7 breast
  GI50: > 42 µM
  TGI: > 100 µM
MDA-MB-231 breast
  GI50: 20.3 µM
  TGI: > 79.4 µM
MDA-MB-435
  GI50: 3.87 µM
  TGI: 25 µM
MOLT-4 leukemia
  GI50: 276 nM
  TGI: > 65.2 µM
NCI-H226 lung
  GI50: 8.53 µM
  TGI: > 100 µM
NCI-H23 lung
  GI50: > 100 µM
  TGI: > 100 µM
NCI-H460 lung
  GI50: 17.7 µM
  TGI: > 100 µM
NCI-H522 lung
  GI50: 1630 nM
  TGI: > 100 µM
NCI/ADR-RES ovarian
  GI50: 8.77 µM
  TGI: > 100 µM
OVCAR-3 ovarian
  GI50: 8.08 µM
  TGI: > 100 µM
OVCAR-4 ovarian
  GI50: 12 µM
  TGI: 97.3 µM
OVCAR-5 ovarian
  GI50: > 100 µM
  TGI: > 100 µM
OVCAR-8 ovarian
  GI50: > 80.4 µM
  TGI: > 100 µM
PC-3 prostate
  GI50: 5.07 µM
  TGI: > 100 µM
RPMI-8226 leukemia
  GI50: 597 nM
  TGI: > 25.4 µM
RXF 393 renal
  GI50: > 100 µM
  TGI: > 100 µM
SF-268 CNS
  GI50: 25.7 µM
  TGI: > 100 µM
SF-295 CNS
  GI50: > 38.3 µM
  TGI: > 100 µM
SF-539 CNS
  GI50: > 26 µM
  TGI: > 100 µM
SK-MEL-2 melanoma
  GI50: > 100 µM
  TGI: > 100 µM
SK-MEL-28 melanoma
  GI50: 43.5 µM
  TGI: > 100 µM
SK-MEL-5 melanoma
  GI50: 44.7 µM
  TGI: > 100 µM
SK-OV-3 ovarian
  GI50: 11.7 µM
  TGI: > 100 µM
SN12C renal
  GI50: 8.07 µM
  TGI: > 100 µM
SNB-19 CNS
  GI50: > 54.3 µM
  TGI: > 100 µM
SNB-75 CNS
  GI50: 15.8 µM
  TGI: > 100 µM
SR leukemia
  GI50: 2320 nM
  TGI: > 59.5 µM
SW-620 colon
  GI50: > 92.3 µM
  TGI: > 100 µM
T-47D breast
  GI50: 6.14 µM
  TGI: > 100 µM
TK-10 renal
  GI50: 23.9 µM
  TGI: > 100 µM
U251 CNS
  GI50: > 50.3 µM
  TGI: > 100 µM
UACC-257 melanoma
  GI50: 67.6 µM
  TGI: > 100 µM
UACC-62 melanoma
  GI50: 93 µM
  TGI: > 100 µM
UO-31 renal
  GI50: 2030 nM
  TGI: > 100 µM
